From patent publication US8715761B2, “Flavor molecules” (Givaudan S.A., priority 2008, dated 2014)

Tests used:
Format in all cases: in vivo
[1] = Isointensity (R-index) of 20 ppm Compound 13 in water, alone and with 7% sucrose, versus sucrose solutions
From the text: The sweet enhancement effect of Compound 13 is illustrated in the following tables: the isointensity of Compound 13 at 20 ppm equals 0.5% sucrose. The isointensity of 7% sucrose with 20 ppm 1-(2-hydroxyphenyl)-3-(pyridin-4-yl)propan-1-one is 8% sucrose. Therefore, the perceived enhancement of sucrose is about 0.5% sucrose (8%-7.5%). This sweet enhancement effect is also observed with consumable products containing other natural and artificial sweeteners, for example, carbohydrates; sucrose, lactose, D-glucose, D-tagatose, D-fructose whether naturally- or synthetically-produced, erythritol, threitol, arabitol, ribitol, xylitol, sorbitol, mannitol, maltitol, isomaltitol, dulcitol, and lactitol, thaumatin, glycin, D-phenylalanine, D-tryptophan, sodium cyclamate, acesulfam K, neohesperidine dihydrochalcone, sodium salt of saccharin, aspartame, superaspartame, neotam, alitam, sucralose, and stevioside.

[2] = Flavorist evaluation of how Compound 13 modifies a flavor in water and in application
From the text: Evaluation Data on the Compound of Example 13, showing how it Modifies a Flavor in Water and in Application.
Strawberry A=candy strawberry. Strawberry B=green strawberry. Strawberry C=floral strawberry. Strawberry D=fruity strawberry.

[3] = Taste testing in water by a panel of experienced tasters
From the text: The taste testing was made by a panel of experienced tasters.

[4] = Sweetness in plain non-fat yoghurt by a trained panel; conditions: 5% sugar and 25 ppm of the compound in plain non-fat yoghurt
Experimental: 5% sugar and 25 ppm of the compound were added to plain non-fat yoghurt. A trained panel compared this to a series of plain non-fat yoghurts to which 5%, 6% 7% and 8% sugar had been added.

[5] = Sweet isointensity against sugar solutions by a testing panel
Experimental: The sweet isointensity was tested against a variety of sugar solutions by a testing panel.

[6] = 7% sucrose + 20 ppm Cmpd 13 in water vs. 7% sucrose
[7] = 7% sucrose + 20 ppm Cmpd 13 in water vs. 8% sucrose
[8] = 7% sucrose + 20 ppm Cmpd 13 in water vs. 9% sucrose
[9] = 7% sucrose + 20 ppm Cmpd 13 in water vs. 10% sucrose
[10] = 20 ppm Compound 13 in water vs. 0.5% sucrose
[11] = 20 ppm Compound 13 in water vs. 1% sucrose

O=C(CCc1ccncc1)c1ccccc1O [Example 13, 1-(2-hydroxyphenyl)-3-(pyridin-4-yl)propan-1-one]
R-index [1, 6]: 66%
sample sweetness [1, 6]: sweeter
R-index [1, 7]: 43%
sample sweetness [1, 7]: isosweet
R-index [1, 8]: 8%
sample sweetness [1, 8]: less
R-index [1, 9]: 4%
sample sweetness [1, 9]: less
isointensity ([1]; 7% sucrose with 20 ppm compound): 8 % sucrose
R-index [1, 10]: 61%
sample sweetness [1, 10]: isosweet
R-index [1, 11]: 14%
sample sweetness [1, 11]: less sweet
perceived enhancement of sucrose ([1]; 20 ppm in 7% sucrose (8%-7.5%)): about 0.5 % sucrose
isointensity ([1]; 20 ppm in water): 0.5 % sucrose
Flavorist Evaluation ([2]; 2% milk, 20 ppm compound 13): Slight change in profile, Sweeter than control
Flavorist Evaluation ([2]; Cereal, 50% reduced sugar + 20 ppm of compound 13): Not lingering, more brown notes, roasted,
Flavorist Evaluation ([2]; Cereal, 50% reduced sugar + 20 ppm of compound 13 + 100 ppm of Sweet Flavor B): Nice, works well, more close to sugar taste,
Flavorist Evaluation ([2]; Cereal, 50% reduced sugar + 50 ppm of compound 13): Sweeter than 50% reduced control, better
Flavorist Evaluation ([2]; Strawberry yoghurt, 3% fat, 7% sugar, Strawberry flavour D @ 0.1% + 10 ppm of compound 13): Fruity, slightly fermented, caramellic, green
Flavorist Evaluation ([2]; Strawberry yoghurt, 3% fat, 7% sugar, Strawberry flavour D @ 0.1% + 25 ppm of compound 13): Fruity, sweet, fermented, caramellic, apple like
Flavorist Evaluation ([2]; Strawberry yoghurt, 3% fat, 7% sugar, Strawberry flavour D @ 0.1% + 50 ppm of compound 13): Fermented, sweet, brown, caramellic, overripe
Flavorist Evaluation ([2]; Vanilla ice cream, 8% vegetable fat, Vanilla flavour A @ 0.5% + 10 ppm of compound 13): creamy, vanillic, sweet, slightly cooked
Flavorist Evaluation ([2]; Vanilla ice cream, 8% vegetable fat, Vanilla flavour A @ 0.5% + 15 ppm of compound 13): creamy, sweet, vanillic, lingering sweet vanilla
Flavorist Evaluation ([2]; Vanilla ice cream, 8% vegetable fat, Vanilla flavour A @ 0.5% + 30 ppm of compound 13): sweet, vanillic, lingering sweet vanilla
Flavorist Evaluation ([2]; Water, 7% sugar + 20 ppm of compound 13): Sweeter than 7% sugar, little floral, fuller, slight
Flavorist Evaluation ([2]; Water, 7% sugar + 50 ppm of compound 13): Sweeter than above, very close to 9% sugar-
Flavorist Evaluation ([2]; Water, 7% sugar with 0.105% Citric acid + 20 ppm of compound 13): Sweeter than control, not effecting acidity,
Flavorist Evaluation ([2]; Water, 7% sugar with 0.105% Citric acid + 50 ppm of compound 13): Sweeter than sample at 20 ppm, musty, clean,
Flavorist Evaluation ([2]; Water, Strawberry A @ 0.2% + 20 ppm compound 13): Green character remains but softer, sweeter
Flavorist Evaluation ([2]; Water, Strawberry B @ 0.2% + 20 ppm compound 13): Sweeter, less green, jammer, maltol-like note,
Flavorist Evaluation ([2]; Water, Strawberry C @ 0.2% + 20 ppm compound 13): Less green, less floral, burnt sugar caramel
Flavorist Evaluation ([2]; Water, Sweetness Improver Flavor A + 5 ppm compound 13 in 25% sugar reduction Grape Type Drink): Sweet grape character with the acidic middle
Taste results in water ([3]; 0.01 ppm to 0.1 ppm): nothing
Taste results in water ([3]; 1 ppm): weak sweet
Taste results in water ([3]; 10 ppm): sweet
Taste results in water ([3]; 100 ppm): very sweet, licorice linger

O=C(CCc1ccco1)c1ccccc1O [Example 8, 3-(furan-2-yl)-1-(2-hydroxyphenyl)propan-1-one]
Taste results in water ([3]; 0.01 ppm): nothing
Taste results in water ([3]; 0.1 ppm): soap, delayed sweet
Taste results in water ([3]; 1 ppm): soap, umami, bitter
Taste results in water ([3]; 10 ppm): licorice aroma, soapy, weak sweet, bitter, vegetable, terpen
Taste results in water ([3]; 100 ppm): bitter, licorice aroma, weak sweet, celery, umami, brothy

COc1ccc(CCC(=O)c2ccccc2O)cn1 [Example 1, 1-(2-hydroxyphenyl)-3-(6-methoxypyridin-3-yl)propan-1-one]
Taste results in water ([3]; 5 ppm): very weak sweet
Taste results in water ([3]; 20 ppm): weakly sweet
Taste results in water ([3]; 100 ppm): very strong sweet, weak bitter taste

COc1ccc(CCC(=O)c2ccc(O)cc2O)cn1 [Example 18]
Taste results in water ([3]; 100 ppm): 100 ppm, sweet

O=C(CCc1cccnc1)c1ccccc1O [Example 7, 1-(2-hydroxyphenyl)-3-(pyridin-3-yl)propan-1-one]
Taste results in water ([3]; 0.1 ppm): nothing
Taste results in water ([3]; 1 ppm): very weak sweet, astringent
Taste results in water ([3]; 10 ppm): waxy, delayed sweet, astringent
Taste results in water ([3]; 100 ppm): weak sweet, chemical, bitter

Cc1ncsc1CCC(=O)c1ccccc1O [Example 4, 1-(2-hydroxyphenyl)-3-(4-methylthiazol-5-yl)propan-1-one]
Taste results in water ([3]; 0.1 to 1 ppm): petroleum, sulfur
Taste results in water ([3]; 10 ppm): very weak sweet, brothy
Taste results in water ([3]; 100 ppm): sweet, brothy, gassy, bitter, linger

O=C(CCc1nccs1)c1ccccc1O [Example 15, 1-(2-hydroxyphenyl)-3-(thiazol-2-yl)propan-1-one]
Taste results in water ([3]; 0.01 ppm): delayed umami aftertaste
Taste results in water ([3]; 0.1 ppm): delayed umami aftertaste
Taste results in water ([3]; 1 ppm): weak plastic, soap, umami, astringent
Taste results in water ([3]; 10 ppm): astringent. strong umami, weak soap, slight bitter
Taste results in water ([3]; 100 ppm): bitter. umami

COc1cccc(CCC(=O)c2ccccc2O)n1 [Example 2, 1-(2-hydroxyphenyl)-3-(6-methoxypyridin-2-yl) propan-1-one]
Taste results in water ([3]; 10 ppm): Slightly sweet/bitter
Taste results in water ([3]; 100 ppm): sweet, bitter, slight fruity

Cc1cc(CCC(=O)c2ccccc2O)no1 [Example 6, 1-(2-hydroxyphenyl)-3-(5-methylisoxazol-3-yl)propan-1-one]
Taste results in water ([3]; 0.1 ppm): slightly bitter
Taste results in water ([3]; 1 ppm): slightly bitter, weakly sweet
Taste results in water ([3]; 10 ppm): brothy, umami, soapy, irritating, garlic
Taste results in water ([3]; 100 ppm): umami, bitter, soapy, garlic

COc1ncccc1CCC(=O)c1ccccc1O [Example 3, 1-(2-hydroxyphenyl)-3-(2-methoxypyridin-3-yl)propan-1-one]
Taste results in water ([3]; 1 ppm): Very weak sweet
Taste results in water ([3]; 10 ppm): Very weak sweet
Taste results in water ([3]; 50 ppm): bitter, weakly sweet and burning

O=C(CCc1ccccn1)c1ccccc1O [Example 12, 1-(2-hydroxyphenyl)-3-(pyridin-2-yl)propan-1-one]
Taste results in water ([3]; 1 ppm): umami
Taste results in water ([3]; 10 ppm): high umami like taste
Taste results in water ([3]; 100 ppm): strong umami, slightly bitter

Cc1csc(CCC(=O)c2ccccc2O)n1 [Example 11, 1-(2-hydroxyphenyl)-3-(4-methylthiazol-2-yl)propan-1-one]
Taste results in water ([3]; 0.01 ppm): nothing
Taste results in water ([3]; 0.1 ppm): very weak bitter
Taste results in water ([3]; 1 ppm): astringent, bitter
Taste results in water ([3]; 10 ppm): bitter, astringent
Taste results in water ([3]; 100 ppm): bitter, terpen, weak sweet

Cl.O=C(CCc1ccncc1)c1ccccc1O [Example 21, 4-(3-(2-hydroxyphenyl)-3-oxopropyl)pyridinium chloride]
isosweet to [4]: 6.5 % sugar
sweet isointensity (isosweet to) ([5]; 30 ppm): 0.75 % sucrose
sweetness equivalent ([5]; 30 ppm of the compound + 7% sucrose): 8.5 % sucrose
sweet isointensity (isosweet to) ([5]; 35 ppm): 1.0 % sucrose
sweet isointensity (isosweet to) ([5]; 40 ppm): 1.25 % sucrose
